The record followed here is PubChem BioAssay AID179 (DTP/NCI, 2004).

In this assay the test system is CEM cells HIV-1 protection, formazan growth assay. Nature of the assay: NCI AIDS Antiviral Assay. The conditions noted are these: for IC50: measured here: growth of uninfected CEM cells. Summed up: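 Human CEM cells, uninfected and HIV-1-infected, received five drug concentrations, and growth was read by soluble formazan assay. Compounds giving at least 50% protection were retested; reproducible 100% protection defined confirmed active.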

“And” between values parts separate entries of the source, which are not always exact repeats. Equal values may be shown once. The source made the active and inactive calls.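 Rule for the calls: active = compounds giving half or more protection of infected cells from virus-caused growth loss, again on retest; inactive = the rest.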

On to `CS(=O)(=O)N(CCC#N)c1ccc(/C=N/NC(=O)CC(=O)Nc2cccc(Cl)c2)cc1`, for which the EC50 (usually the midpoint of the concentration-response curve) is above 204 µM and the concentration for half-maximal inhibition (IC50) – broadly, the point on the concentration scale where inhibition reaches its midpoint – is above 204 µM.
Turning to `O=C(NNC(=S)Nc1ccccc1)c1nsc2ccccc12`, the EC50 is above 110 µM and the half-inhibitory concentration (IC50) is 17.8 µM.
For `Cn1c2c(sc1=O)CCC2` the same measures were above 200 µM and above 200 µM.
For `COC(=O)c1cccc2cccc(C(=O)N(C)CCN(C)C)c12` the same measures were above 708 µM and above 708 µM.
On to `CCOC(=O)C(c1ccsc1)C(C(=O)OCC)c1cccs1` (stereo unspecified), for which the EC50 is above 200 µM and the IC50 was above 200 µM.
For `COc1ccc(-c2oc3cc(OC(C)=O)cc(OC(C)=O)c3c(=O)c2OC)cc1`, the outcome was inactive.
Turning to `CC/C(N)=N\NC(=O)OC(C)(C)C`, the EC50 was above 200 µM and the half-inhibitory concentration (IC50) is above 200 µM.
For `CC(=O)OCC1OC(n2c(N)c(C#N)c(C)c(C#N)c2=S)C(OC(C)=O)C(OC(C)=O)C1OC(C)=O` (stereo unspecified), the EC50 was 145 µM and 162 µM; the IC50 is above 200 µM.
Turning to `CCC(=O)c1cn(C)c(=O)c2ccccc12`, the outcome was inactive.
Regarding `COC(=O)CCn1cnc2c(SC)ncnc21`, the EC50 is above 200 µM and the 50% inhibitory concentration (IC50) is above 200 µM.
As for `CCOc1ccc(NC(=O)/C(=C\c2ccc(C)cc2)C(C)=O)cc1`, the result was inactive.
For the molecule `C=C1CC2(OC1=O)c1ccccc1CCc1ccccc12`, the EC50 was above 36.3 µM and the IC50 turned out to be 6.17 µM.
Take `NC(N)=N/N=C(\c1ccccc1)C(O)c1ccccc1` (stereo unspecified): the EC50 is above 200 µM and the IC50 came out at 107 µM.
Consider `O=C(Cc1ccccc1)NN1C(=O)/C(=C\c2ccc(O)cc2)SC1=Nc1ccccc1`, for which the EC50 was above 31.6 µM and the IC50 is above 31.6 µM.
On to `COc1ccc(OC)c(CSc2ccc(OC)c(OC)c2)c1`, for which the EC50 is above 200 µM and the IC50 turned out to be 85.1 µM.
For `CC(C)(C)OC(=O)N1N=CCC1c1ccccc1` (stereo unspecified) the same measures were above 200 µM and above 200 µM.
With `O=C1CCCC/C1=C1/SC(=Nc2ccccc2)C(=Nc2ccccc2)N1c1ccccc1`, the EC50 is above 200 µM and the 50% inhibitory concentration (IC50) was above 200 µM.
For the molecule `CC(C(O)c1ccccc1)C(O)(C(F)(F)F)C(F)(F)F` (stereo unspecified), the EC50 is above 200 µM and the IC50 is 95.5 µM.
As for `CCCCc1ccc(Nc2ncc3ncn(COCCO)c3n2)cc1`, the EC50 was above 200 µM and the IC50 is 51.3 µM.
The like results for `COc1c2cc(C(C)(C)C)cc1Cc1cccc(c1O)Cc1cc(C(C)(C)C)cc(c1OC)Cc1cccc(c1O)Cc1cc(C(C)(C)C)cc(c1OC)Cc1cccc(c1O)C2` were, in that order, above 151 µM and above 151 µM.
`[O-]/[N+](=N/c1ncc(-c2ccccc2)cn1)c1ncc(-c2ccccc2)cn1`: the EC50 was above 200 µM and the half-inhibitory concentration (IC50) is 31.6 µM.
The like results for `Cc1c2ccn(O)cc2c(C)c2c1nc1ccccc12` were, in that order, above 200 µM and 1.82 µM.
On to `CC(C)(C)C1=C(Br)C(F)(C(C)(C)C)OP1(=O)c1ccccc1` (stereo unspecified), for which the EC50 was above 200 µM and the IC50 is 25.7 µM.
As to `NS(=O)(=O)c1ccc(NC(=O)CC(=O)Nc2ccc(S(N)(=O)=O)cc2)cc1`, the outcome was inactive.
With `CC(c1ccccc1)n1cncc1C(=O)NN1CCN(C)CC1` (stereo unspecified), the EC50 was above 200 µM and the half-maximal inhibitory concentration (IC50) is above 200 µM.
With `COC(=O)C(Cc1ccccc1)NP(=O)(O)OCC1OC(n2cc(F)c(=O)[nH]c2=O)CC1O` (stereo unspecified), the EC50 was above 200 µM and the IC50 stood at 58.9 µM.
The like results for `CSc1c(C#N)c(=O)n(N)c2n[nH]c(C)c12` were, in that order, above 200 µM and above 200 µM.
With `CC(=O)Oc1ccc(/C=C/C(=O)OCCOC(=O)/C=C/c2ccc(OC(C)=O)c(OC(C)=O)c2)cc1OC(C)=O`, the EC50 was above 20 µM and the concentration for half-maximal inhibition (IC50) is 8.71 µM.
For `CCCC(C)N(CC(=O)Nc1ccc(S(N)(=O)=O)cc1)C(C)=O` (stereo unspecified) the same measures were above 200 µM and above 200 µM.
The like results for `C(#C[PH+](c1ccccc1)c1ccccc1)c1ccccc1.C(#C[PH+](c1ccccc1)c1ccccc1)c1ccccc1.C(#C[PH+](c1ccccc1)c1ccccc1)c1ccccc1.[C-]#[O+].[C-]#[O+].[C-]#[O+].[Cr]` were, in that order, above 0.55 µM and above 0.55 µM.
For `C/C(=N\NS(=O)(=O)c1ccc(C)cc1)c1ccccn1` the same measures were above 200 µM and 58.9 µM.
Consider `CCSC1=N/C(=C/c2ccccc2O)C(Cl)=N1`, for which the concentration for a half-maximal effect (EC50) was 50.1 µM and the concentration for half-maximal inhibition (IC50) is above 200 µM.
For `O=C(CSc1nnc(Cc2ccccc2)o1)Nc1ccccc1` the same measures were above 209 µM and above 209 µM.
On to `CN1CN(c2ccccc2)C2(CCN(CCCN(C)c3ccc(F)cc3)CC2)C1=O`, for which the EC50 was above 200 µM and the IC50 was 35.5 µM.
For `CC(CCC(=O)O)[C@H]1CCC2[C@@H]3CC[C@@H]4CC(O)CC[C@]4(C)C3CC[C@@]21C` (stereo partly specified) the same measures were above 200 µM and above 100 µM.
Regarding `COC12OCCN(C)C1=CC(=O)C1(C)N=NCC12` (stereo unspecified), the result was inactive.
As for `COC(=O)/C(=C/CC(N=C(c1ccccc1)c1ccccc1)C(=O)OC)N=C(c1ccccc1)c1ccccc1` (stereo unspecified), the EC50 was above 9.77 µM and the IC50 was above 9.77 µM.
With `CCN(CC)C(=S)N/N=C(/C)c1cccc(/C(C)=N\NC(=S)N(CC)CC)n1`, the EC50 was above 200 µM and the concentration for half-maximal inhibition (IC50) amounted to 6.31 µM.
Regarding `CCOC(=O)CCC(NC(=O)c1ccc(OCc2ccc3nc(-c4ccccc4)c(Cl)nc3c2)cc1)C(=O)OCC` (stereo unspecified), the EC50 is above 200 µM and the half-inhibitory concentration (IC50) amounted to 43.7 µM.
With `O=C(Cn1cc(F)c(=O)[nH]c1=O)C12CC3CC(CC(C3)C1)C2`, the EC50 is above 200 µM and the IC50 amounted to 186 µM.
Turning to `COc1ccc(P2(=S)Oc3ccccc3-c3ccccc3O2)cc1`, the EC50 was above 0.2 µM and the half-maximal inhibitory concentration (IC50) amounted to 0.0631 µM.
The like results for `CCOC(=O)NP(=O)(Nc1ccc(C)cc1)Nc1ccc(C)cc1` were, in that order, above 200 µM and above 200 µM.
For the molecule `CCCCC[C@@H]1CCCC2C1CCC(CCCCCO)N2C(=O)OCC(Cl)(Cl)Cl` (stereo partly specified), the outcome was inactive.
For `C=C1c2nc3ccccc3n2C=C(c2ccc(C)cc2)N1c1ccc(C)cc1`, the EC50 was above 200 µM and the IC50 stood at 26.9 µM.
For `COC(=O)C1(Cc2ccccc2)Cc2ccccc2C1O` (stereo unspecified) the same measures were above 200 µM and 91.2 µM.
The like results for `CCCCCCCSCc1nc2ccccc2c(C)[n+]1[O-]` were, in that order, above 66.1 µM and 50.1 µM.
In the case of `Cc1ccc(C(=O)N2CCN(C(=O)c3ccc(C)cc3)c3ccccc32)cc1`, the EC50 was above 10.2 µM and the IC50 was 1.82 µM.
For the molecule `Cc1nn2c(c1C#N)NNc1c-2sc(=N)nnc1=O`, the EC50 was 31.6 µM and the IC50 was found to be 43.7 µM.
For `CC(=O)NC1C(=O)N([C@H](COCc2ccccc2)c2ccccc2)[C@@H]1COC(C)(C)C` (stereo partly specified) the same measures were above 295 µM and 186 µM.
As to `c1ccc2c(c1)nc1nc3c(cn12)CCCCC3`, the outcome was inactive.
For the molecule `O=C(Cc1ccccc1)Nc1ccccc1Cl`, the EC50 is above 204 µM and the IC50 was above 204 µM.
Take `Cc1sc2nc3n(c(=O)c2c1C)N=CN(c1ccc(Cl)cc1)C3`: the EC50 is 9.33 µM and the IC50 is 50.1 µM.
The like results for `C=CCNC(=O)/C=C\C(=O)O` were, in that order, above 1620 µM and above 1620 µM.
As to `CCOC(=O)c1c[nH]c(C(=O)OCC)c1-c1cccn1-c1ccccc1`, the EC50 is above 200 µM and the IC50 worked out at 24.5 µM.
For `O=C1C2=C(C(=O)C3=C1C1CCC3C1)C1CCC2C1` the same measures were above 200 µM and 5.89 µM.
For `Cc1noc(NS(=O)(=O)c2ccc(NC(=S)/N=C/C(C(=O)c3ccccc3)=C(\O)c3ccccc3)cc2)c1C` the same measures were above 200 µM and 120 µM.
The like results for `COC1/C=C\OC2(C)Oc3c(C)c(O)c4c(O)c(c(/C=N\O)c(O)c4c3C2=O)NC(=O)/C(C)=C\C=C/C(C)C(O)C(C)C(O)C(C)C(OC(C)=O)C1C` (stereo unspecified) were, in that order, above 77.6 µM and 74.1 µM.
Consider `N#CC(C#N)=c1ccc(=C(C#N)C#N)c2nsnc12`, for which the EC50 is above 38 µM and the half-maximal inhibitory concentration (IC50) is above 38 µM.
In the case of `CC12CC(OC(=O)[C@]1(C)O)[C@@H]([C@]1(O)CC[C@H]3[C@@H]4C[C@H]5O[C@]56[C@@H](O)C=CC(=O)[C@]6(C)[C@H]4CC[C@@]31C)C2` (stereo partly specified), the EC50 is above 3.89 µM and the concentration for half-maximal inhibition (IC50) is 0.145 µM.
For the molecule `Cc1ccccc1OCC(COC(=O)Nc1ccccc1)OC(=O)Nc1ccccc1` (stereo unspecified), the EC50 is above 32.4 µM and the IC50 was above 32.4 µM.
Regarding `O=c1[nH][nH]c(=O)c2nc(Nc3ccc(Cl)cc3)ncc12`, the EC50 was above 34.7 µM and the concentration for half-maximal inhibition (IC50) was above 34.7 µM.
In the case of `COc1ccc(S(=O)(=O)c2nnc(S(=O)(=O)Cc3ccccc3)s2)cc1`, the EC50 is above 200 µM and the IC50 amounted to 3.63 µM.
Consider `CC12CC(=O)NC(=O)N1CCS2` (stereo unspecified), for which the EC50 was 214 µM and the IC50 amounted to 562 µM.
The like results for `C[Si](C)(C)/C=C/CCNC(C#N)c1ccccc1` (stereo unspecified) were, in that order, above 20.4 µM and above 20.4 µM.
For `NC(=O)CCC(F)(C(N)=O)C(N)=O` the same measures were above 200 µM and above 200 µM.
For `CN(C)CCSc1nc(-c2cccs2)c2ccccc2n1` the same measures were above 115 µM and 26.3 µM.
Consider `CCOC(=O)c1c(C)c(N=O)c2ccccn12`, for which the EC50 was above 200 µM and the IC50 was 5.62 µM.
For the molecule `CN1CCCCCCCC(=O)C(OC(=O)c2ccc([N+](=O)[O-])cc2)CCCCCCC1` (stereo unspecified), the EC50 is above 100 µM and the 50% inhibitory concentration (IC50) was 72.4 µM.
Turning to `CC(O)CN(N)CC(C)O` (stereo unspecified), the result was inactive.
With `Cc1c(OCCCOc2ccc3c(=O)cc(-c4ccccc4)oc3c2C)ccc2c(=O)cc(-c3ccccc3)oc12`, the EC50 was above 25.1 µM and the 50% inhibitory concentration (IC50) was above 25.1 µM.
In the case of `CC1C=C(Sc2ccccc2)C(=O)O1` (stereo unspecified), the EC50 was above 468 µM and the IC50 worked out at 25.1 µM.
The like results for `NC1=NCN2C(=N1)OC1C(O)C(CO)OC12` (stereo unspecified) were, in that order, above 200 µM and above 200 µM.
